Assay results reported in publication PMC5719405, “Sex-related pharmacokinetic differences and mechanisms of metapristone (RU486 metabolite)” (Scientific Reports, 2017).

Assays:
human CYP1A2 = molecular target: T1, human CYP1A2 (Homo sapiens, UniProt P05177); assay: Metapristone metabolism by cDNA-expressed recombinant human CYP1A2; format: in vitro ADME; settings: 9 µM
T1 construct: made in house; host or cells: insect cells
T1 sequence (P05177 1-516): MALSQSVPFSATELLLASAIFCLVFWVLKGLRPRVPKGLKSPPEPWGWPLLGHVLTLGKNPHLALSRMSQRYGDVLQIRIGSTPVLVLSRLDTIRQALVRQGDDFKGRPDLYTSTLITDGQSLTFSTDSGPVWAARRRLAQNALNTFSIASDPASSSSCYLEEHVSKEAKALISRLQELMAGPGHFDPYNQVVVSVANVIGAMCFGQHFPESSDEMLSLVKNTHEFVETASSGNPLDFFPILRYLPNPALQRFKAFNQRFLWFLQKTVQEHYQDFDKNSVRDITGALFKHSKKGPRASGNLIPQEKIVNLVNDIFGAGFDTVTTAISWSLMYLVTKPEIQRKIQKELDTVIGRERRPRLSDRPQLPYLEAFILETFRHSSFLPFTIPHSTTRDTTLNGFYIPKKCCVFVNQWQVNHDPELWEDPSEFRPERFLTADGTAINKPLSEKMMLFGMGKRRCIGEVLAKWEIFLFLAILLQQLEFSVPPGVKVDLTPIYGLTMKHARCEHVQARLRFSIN
Description: To identify CYP450 isomers which were responsible for the sex different metabolism of metapristone, both CYP450 inhibitors and cDNA-expressed recombinant human CYPs were used[11]. […] The reactions of the control groups with control rat liver microsomes (heated to 80 °C for 5 min to inactivate enzymes) to inactivate enzymes or without NADPH were also included. […] The cDNA-expressed recombinant human CYPs were prepared from insect cells transfected with cDNAs encoding for human CYP1A2 or CYP3A4. […] Each reaction was then started by the addition of metapristone (9 µM) with subsequent mixing of each sample by inversion. […] Metapristone were identified by the LC/MS/MS method. Peak areas formed were used for quantitative analyses. Control incubation mixtures included mixtures without inhibitors, and mixtures with untransfected insect cell microsomes used as microsomal control, and mixtures that contained methanol instead of inhibitor (methanol control). Quantitative analyses were performed by comparing the peak areas of the inhibition reactions to their respective methanol controls. The total organic solvent content of the in vitro reaction mixtures was less than 2%.

CYP1A2 = assay: Western blotting of rat liver CYP1A2 after 7-day oral metapristone; format: in vivo
Description: (§1) To further confirm CYP1A2 and CYP3A4 are the primary CYP isoforms that metabolize metapristone, we administered oral metapristone (22.5 and 45 mg/kg/day for 7 days) to male and female rats, respectively, and measured the activity of liver CYP1A2 and CYP3A4 by using the western blotting assay. We selected western blot staining density from the controls as the basis (100%) to compare changes in CYP1A2 and CYP3A4 activity after metapristone treatment.
(§2) The total microsomal protein was extracted from rat livers prepared by diluting liver microsomal suspension with 1 volume of immunoprecipitation assay lysis buffer (150 mM NaCl, 1% NP-40, 0.5% sodium deoxy-cholic acid, 0.1% SDS, and 50 mM Tris-Cl, pH 7.5) for 15 min and then centrifuged at 13,000 rpm 4 °C for 10 min. Aliquots containing 20 µg of protein were separated by SDS-PAGE on a 10% gradient gel (Invitrogen, USA) and transferred to a PVDF membrane that was blocked with 5% non-fat dry milk in Tris-buffered saline with Tween 20 (200 mM Tris–HCl, 1.37 M NaCl, 0.1% Tween 20, pH 7.6) for 1 h. The membrane was then incubated with rabbit anti-rat CYP1A2 polyclonal antibody (1:2000 dilution), rabbit anti-rat CYP3A4 polyclonal antibody (1:1000 dilution) and glyceraldehyde-3-phosphate dehydrogenase (GAPDH) antibody (1:2000 dilution), overnight at 4 °C. After rinsing five times with buffer TBST at room temperature, the membrane was incubated with horseradish peroxidase (HRP)-labeled anti-rabbit immunoglobulin G (IgG) anti-body (Santa Cruz Biotechnology, USA). The immunoreactive bands were visualized using an enhanced chemiluminescence detection system (ChemiDoc™XRS + , Bio-Rad, Hercules, CA, USA) and quantified by using densitometry Image J 1.41 software.

CYP3A4 = assay: Western blotting of rat liver CYP3A4 after 7-day oral metapristone; format: in vivo
Description: as §1, §2

HT-29 cells = settings: cited from earlier work
human CYP3A4 = human CYP3A4 (Homo sapiens, UniProt P08684); assay: Metapristone metabolism by cDNA-expressed recombinant human CYP3A4; settings: 9 µM
human CYP3A4, sequence (P08684 whole entry): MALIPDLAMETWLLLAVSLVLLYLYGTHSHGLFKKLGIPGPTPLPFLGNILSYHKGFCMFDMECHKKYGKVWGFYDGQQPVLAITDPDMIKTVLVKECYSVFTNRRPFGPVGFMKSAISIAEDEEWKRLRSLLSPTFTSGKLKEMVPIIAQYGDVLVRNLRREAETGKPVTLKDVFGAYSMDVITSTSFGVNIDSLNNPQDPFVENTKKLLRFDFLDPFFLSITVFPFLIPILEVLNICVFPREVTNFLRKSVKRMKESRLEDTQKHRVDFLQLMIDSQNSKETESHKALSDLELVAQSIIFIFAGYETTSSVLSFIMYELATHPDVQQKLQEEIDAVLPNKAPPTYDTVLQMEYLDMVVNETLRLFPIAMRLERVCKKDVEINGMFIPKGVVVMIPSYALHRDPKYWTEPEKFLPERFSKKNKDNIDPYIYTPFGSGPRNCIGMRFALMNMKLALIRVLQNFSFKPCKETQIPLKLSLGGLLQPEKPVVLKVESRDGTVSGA

[1] = female rats, 22.5 mg/kg/day p.o. for 7 days
[2] = female rats, 45 mg/kg/day p.o. for 7 days
[3] = male rats, 22.5 mg/kg/day p.o. for 7 days
[4] = male rats, 45 mg/kg/day p.o. for 7 days

metapristone remained (human CYP1A2; 120 min incubation with CYP1A2, absence of inhibitor): 47.9%
CYP1A2 western blot staining density relative to controls (100%) (CYP1A2; [1]): 120 ± 16%
CYP1A2 western blot staining density relative to controls (100%) (CYP1A2; [2]): 147 ± 21%
CYP1A2 western blot staining density relative to controls (100%) (CYP1A2; [3]): 156 ± 19%
CYP1A2 western blot staining density relative to controls (100%) (CYP1A2; [4]): 163 ± 12%
CYP3A4 western blot staining density relative to controls (100%) (CYP3A4; [1]): 107 ± 13%
CYP3A4 western blot staining density relative to controls (100%) (CYP3A4; [2]): 128 ± 12%
CYP3A4 western blot staining density relative to controls (100%) (CYP3A4; [3]): 115 ± 14%
CYP3A4 western blot staining density relative to controls (100%) (CYP3A4; [4]): 153 ± 17%
metapristone remaining (human CYP3A4; 120 min incubation with CYP3A4, absence of inhibitor): 16.3%
metapristone unchanged (human CYP3A4; 120 min incubation with CYP3A4, plus ketoconazole 10 µM): 72.9%
SMILES: CC#C[C@]1(O)CC[C@H]2[C@@H]3CCC4=CC(=O)CCC4=C3[C@@H](c3ccc(NC)cc3)C[C@@]21C [metapristone, N-monodemethyl mifepristone]
metapristone survived (human CYP1A2; 120 min incubation with CYP1A2, plus α-naphthoflavone 10 µM): 89.9%
adhesion of HT-29 cells to endothelial cells (HT-29 cells): interrupted adhesion
